# Source: patent US20250066507A1, “METHODS OF TREATING CANCER WITH A COMBINATION OF AN ANTI-PD-1 ANTIBODY AND AN ANTI-TISSUE FACTOR ANTIBODY-DRUG CONJUGATE” (Genmab A/S, priority 2018, published 2025)
# Square brackets hold non-standard residues; d marks the D form. Peptide text beside a SMILES is read from it. * marks the point of attachment. Dolaproine = CO[C@@H]([C@@H]1CCCN1)[C@@H](C)C(=O)O; Dil = CC[C@H](C)[C@H](NC)[C@@H](CC(=O)O)OC; X1 = C[C@@H](N*)[C@@H](O)c1ccccc1; NMeV = CN[C@H](C(=O)O)C(C)C
# Key:
# advanced cervical cancer = settings: 240 mg Q2W, 19 patients with previously treated; cited from earlier work
# T cells = experiment: T cell activation in CSFE labeled PBMCs fed drug-killed MDA-MB-231 cells, with or without nivolumab; format: cell-based, human; settings: for T cell proliferation (CSFE dilution) / IFNγ production / IL12p70 production: MDA-MB-231 cells exposed to the agent; for T cell proliferation (CSFE dilution): fed to CSFE labeled human PBMCs for 48 hours; for IFNγ production / IL12p70 production: fed to human PBMCs for 48 hours
# From the text: Induction of the innate immune response following exposure to cancer cells undergoing ICD sets up secondary T cell activation, which can be enhanced by concomitant anti-PD1 treatment.
# HeLa cells [1] = experiment: Live imaging of RFP-tubulin and ER-ID Green in MMAE-treated HeLa cells; format: cell-based; settings: 100 nM MMAE, imaged over time
# Protocol: Treatment of HeLa cells with MMAE led to disassembly of the microtubule network and subsequent ER mislocalization. HeLa cells were transduced with a baculovirus encoding RFP-labeled Tubulin (CellLight Tubulin-RFP, ThermoFisher Scientific) and an ER-binding dye (ER-ID Green, Enzo Life Sciences). Cells were treated with 100 nM MMAE and imaged over time in the present of MMAE. Within 2 hours, fragmentation and disassembly of the microtubule network became evident, concurrent with the breakdown of the perinuclear organized ER lattice (FIGS. 2A and B). The condensed and mislocalized ER skeleton indicated severe ER stress within 8 hours.
# [2] = test system: MDA-MB-231 (breast cell carcinoma); experiment: Western blot of ER stress pathways in MDA-MB-231 cells; format: cell-based; settings: 18 hours (FIG. 5 legend: 16 hours)
# Protocol: (§1) Induction of cell death and release of ICD danger signals occurs concomitant with initiation of an ER stress response. Two Tissue Factor positive cell lines, HPAFII (pancreatic carcinoma) and MDA-MB-231 (breast cell carcinoma) were exposed to tisotumab vedotin ADC, an Isotype-MMAE ADC (H00-MMAE, IgG1 MMAE), or free MMAE for 18 hours and induction of ER stress monitored by western blot analysis. Phosphorylation of inositol-requiring transmembrane kinase/endonuclease 1 (IRE1) was detected after treatment with tisotumab vedotin ADC or MMAE free drug (FIG. 5). […] The ability for auristatins to prime the immune system to recognize tumor antigens opens the door for a myriad of combinatorial therapeutic options.
# [3] = test system: Tissue Factor positive cell lines; experiment: Release of ICD molecules ATP and HMGB1 from Tissue Factor positive cells; format: cell-based; settings: for ATP secretion: FIG. 4A; for HMGB1 release: FIG. 4C
# From the text: Auristatin ADC payloads disrupt the microtubule networks resulting in altered ER localization and function, which ultimately results in ER stress. Cells exposed to Tissue Factor directed antibody linked to the monomethyl auristatin E payload (MMAE), i.e., tisotumab vedotin (an antibody drug conjugate or ADC), undergo cell death and as they do release the ICD related molecules ATP (FIG. 4A) and HMGB1 (FIG. 4C). The release of these molecules is specific to tisotumab vedotin ADC and MMAE treatment and occurs across multiple Tissue Factor positive cell lines (FIG. 4B).
# [4] = test system: HPAFII (pancreatic carcinoma); experiment: Western blot of ER stress pathways in HPAFII cells; format: cell-based; settings: 18 hours (FIG. 5 legend: 16 hours)
# Protocol: as §1
# [5] = test system: CD14+ monocyte/macrophages; experiment: Monocyte/macrophage activation in PBMCs fed drug-killed MDA-MB-231 cells; format: cell-based; settings: MDA-MB-231 cells killed with the agent, fed to human PBMCs; for monocyte/macrophage activation monitored by CD86 expression: flow cytometry
# From the text: FIGS. 6A and 6B is a series of graphs in which Tissue Factor positive MDA-MB-231 cells killed with various agents were fed to human peripheral blood mononuclear cells (PBMCs) and immune activation assessed by increased expression of activations markers on innate CD14+ monocyte/macrophages and induction of chemokine and cytokine production.
# Immunogenic cell death, as mediated by MMAE, is regulated cell death that activates adaptive immune responses against antigens from dead and dying tumor cells, and allows for the generation of robust innate immune cell activation and subsequent cytotoxic T cell responses targeted towards specific tumor cell antigens. […] Furthermore, these monocyte/macrophages conditioned by ICD-killed cells promote activation of T cells, as evidenced by production of signature inflammatory cytokines associated with cytotoxic T cell responses.
# HeLa cells [6] = experiment: ATP and HMGB1 secretion from MMAE-treated HeLa cells; format: cell-based; settings: 100 nM MMAE, over 24 hours, versus untreated cells
# From the text: Induction of ICD is also characterized by the secretion of ATP and HMGB1. Extracellular ATP serves as a strong chemotactic signal, promoting immune cell migration to the tumor site. Upon arrival, extracellular HMGB1 signals through various pro-inflammatory receptors (TLR2, TLR4, RAGE) to activate antigen-presenting cells, thereby promoting immune activity within the tumor.
# HeLa cells [7] = experiment: Western blot of ER stress signalling in MMAE-treated HeLa cells; format: cell-based; settings: 100 nM MMAE, 16 hours
# Protocol: HeLa cells, a cervical cancer cell line, were cultured in Minimum Essential Medium (MEM) with 10% FBS, 10 mM HEPES, 1 mM sodium pyruvate, 2 mM L-glutamine, penicillin (100 U/ml), and streptomycin (100 μg/ml). HeLa cells were treated with 100 nM MMAE for 16 hours and harvested in radioimmunoprecipitation assay buffer (RIPA) buffer for western blot analysis. […] Severe ER stress is a prerequisite to the exposure of pro-phagocytic signals on the surface of tumor cells, and can be indicated by activation of JNK signaling by phosphorylated IRE1.
# wild-type tumor cells = experiment: Syngeneic model: immunization with drug-killed human TF positive tumor cells, then tumor challenge; format: in vivo, Balb/c mice; settings: for survival after challenge / tumor growth after challenge: Balb/c mice immunized with human TF positive tumor cells killed by the agent, challenged s.c. with 5×10^6 wild-type tumor cells
# Protocol: Mouse tumor cells are transfected with plasmid constructs encoding human tissue factor (TF) and sgRNA-guided Cas9 nuclease (sgRNA/Cas9) to generate a murine cell line that expresses the human TF. Fluorescence activated cell sorting (FACS) yields a clonal population of murine tumor cells that stably express human TF, these cells are then treated with lpg to 5 μg per ml of tisotumab vedotin or 100 nM of MMAE for 4 days. In order to prepare dying cells for immunization, treated murine tumor cells are overlaid atop Histopaque, and centrifuged at 2000 g for 30 minutes. Dead and dying cells are pelleted underneath the Histopaque layer, and viability assessed by trypan blue exclusion. A sample with approximately <20% live cells as measured by trypan blue exclusion is obtained. Flash-frozen tumor cells are prepared by submerging the cells in liquid nitrogen for 10 seconds, followed by immersion in 37° C. water until completely thawed. The liquid nitrogen freeze-thaw process is repeated 5 times. Dead and dying human TF positive tumor cells are resuspended in phosphate buffered saline (PBS) and 2×10^6 cells are injected into the peritoneum of immune-competent Balb/c mice. Seven days later, mice receive a second immunization with dead and dying cells prepared in the same manner.
# Fourteen days after initial immunization with the dead and dying human TF positive tumor cells, mice are subcutaneously implanted with 5×10^6 wild-type tumor cells and monitored for tumor growth. […] As these effects occur in the absence of any administered therapeutic agent, the administration of cells killed by tisotumab vedotin or MMAE is sufficient to generate long-lasting protective immune memory against subsequent tumor cell challenge. Protective immune memory is amplified by treating these mice with tisotumab vedotin in combination with an antibody that binds to murine PD-1. This combination treatment increases the number of mice that are cured by subsequent tumor challenge.
# [8] = concomitant nivolumab treatment, 48 hours
Compound,T cell proliferation (CSFE dilution) (T cells),IFNγ production (T cells),IL12p70 production (T cells),ATF4 cleavage (PERK pathway) [2],activation of JNK (phosphorylation) [2],phosphorylation of IRE1 [2],ATP secretion [3],HMGB1 release [3],ATF4 cleavage (PERK pathway) [4],activation of JNK (phosphorylation) [4],phosphorylation of IRE1 [4],release of innate chemokines including MIP10 [5],monocyte/macrophage activation monitored by CD86 expression [5],survival after challenge (wild-type tumor cells),tumor growth after challenge (wild-type tumor cells),further results
"nivolumab: anti-PD-1 antibody, a checkpoint inhibitor",–,–,–,–,–,–,–,–,–,–,–,–,–,–,–,"objective response rate (advanced cervical cancer): 26%; effect of nivolumab on T cell proliferation driven by tisotumab vedotin or MMAE killed cells (T cells; 2 mg/ml of nivolumab, 48 hours): enhanced; effect of concomitant nivolumab on IFNγ production after tisotumab vedotin and MMAE killed cells (T cells; [8]): increased; effect of concomitant nivolumab on IL12p70 production after tisotumab vedotin and MMAE killed cells (T cells; [8]): increased"
tisotumab,did not elicit these responses,did not elicit these responses,did not elicit these responses,–,–,–,–,–,–,–,–,–,–,–,–,–
"CC[C@H](C)[C@@H]([C@@H](CC(=O)N1CCC[C@H]1[C@H](OC)[C@@H](C)C(=O)N[C@H](C)[C@@H](O)c1ccccc1)OC)N(C)C(=O)[C@@H](NC(=O)[C@@H](NC)C(C)C)C(C)C [MMAE, monomethyl auristatin E] (H-[NMeV]V[Dil][Dolaproine]-X1)",drove T cell proliferation,increased,increased,upregulation of ATF4 cleavage,increased phosphorylation,detected,robust,robust,upregulation of ATF4 cleavage,increased phosphorylation,detected,induced release,drove monocyte/macrophage activations,increased survival,delayed tumor growth,time until condensed and mislocalized ER skeleton indicated severe ER stress (HeLa cells [1]): ≤ 8 h; time until fragmentation and disassembly of the microtubule network and breakdown of the perinuclear ER lattice became evident (HeLa cells [1]): ≤ 2 h; secretion of ATP (HeLa cells [6]): increased secretion; secretion of HMGB1 (HeLa cells [6]): increased secretion; phosphorylation of IRE1 (HeLa cells [7]): led to phosphorylation; phosphorylation of JNK (HeLa cells [7]): phosphorylation of IRE1 and JNK
tisotumab vedotin,drove T cell proliferation,increased,increased,upregulation of ATF4 cleavage,increased phosphorylation,detected,robust,robust,upregulation of ATF4 cleavage,increased phosphorylation,detected,induced release,drove monocyte/macrophage activations,increased survival,delayed tumor growth,activity (release of ICD molecules) on multiple Tissue Factor positive cell lines ([3]; FIG. 4B): active; number of mice cured by subsequent tumor challenge (wild-type tumor cells; immunized mice treated with tisotumab vedotin in combination with an antibody that binds to murine PD-1): increases
